Measured values from BindingDB's records for doi:10.1002/cbic.200400192 (Max-Planck-Institut FÜR Molekulare Physiologie, 2005).

Columns and labels:
Assay in all cases: Inhibition Assay
Angiopoietin-1 receptor = Angiopoietin-1 receptor (Homo sapiens, UniProt Q02763)
Method: (§1) The kinase-catalyzed phosphorylation of poly(Glu4-Tyr) in the presence of varying concentrations of inhibitor was determined. The kinase were employed as fusion proteins of glutathion-S-transferase (GST) and the kinase domain. The relative amount of phosphorylated substrate was quantified by antiphosphotyrosine enzyme-linked immunosorbent assay.

[1] = target: Insulin-like growth factor 1 receptor (Homo sapiens, UniProt P08069)
Insulin-like growth factor 1 receptor, sequence (P08069 31-736 limits assumed): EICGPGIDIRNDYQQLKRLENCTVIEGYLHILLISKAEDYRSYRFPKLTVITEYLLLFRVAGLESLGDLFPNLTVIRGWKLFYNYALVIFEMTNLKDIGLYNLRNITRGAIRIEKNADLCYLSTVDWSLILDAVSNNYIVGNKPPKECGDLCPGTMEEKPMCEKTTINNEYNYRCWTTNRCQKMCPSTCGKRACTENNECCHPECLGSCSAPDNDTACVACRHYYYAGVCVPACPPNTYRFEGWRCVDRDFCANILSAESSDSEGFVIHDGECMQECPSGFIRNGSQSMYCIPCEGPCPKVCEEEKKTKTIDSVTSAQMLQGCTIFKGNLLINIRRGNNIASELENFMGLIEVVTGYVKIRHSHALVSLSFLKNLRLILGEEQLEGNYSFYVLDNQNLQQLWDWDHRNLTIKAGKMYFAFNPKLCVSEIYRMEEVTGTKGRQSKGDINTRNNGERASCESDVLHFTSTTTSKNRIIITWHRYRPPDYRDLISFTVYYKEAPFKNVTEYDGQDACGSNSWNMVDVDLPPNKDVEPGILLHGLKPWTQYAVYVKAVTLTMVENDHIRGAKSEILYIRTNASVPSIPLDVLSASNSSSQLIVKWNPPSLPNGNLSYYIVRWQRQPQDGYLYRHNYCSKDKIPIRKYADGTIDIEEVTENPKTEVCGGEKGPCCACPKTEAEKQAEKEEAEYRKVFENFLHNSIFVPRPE
Insulin-like growth factor 1 receptor, sequence (P08069 741-1367 limits assumed): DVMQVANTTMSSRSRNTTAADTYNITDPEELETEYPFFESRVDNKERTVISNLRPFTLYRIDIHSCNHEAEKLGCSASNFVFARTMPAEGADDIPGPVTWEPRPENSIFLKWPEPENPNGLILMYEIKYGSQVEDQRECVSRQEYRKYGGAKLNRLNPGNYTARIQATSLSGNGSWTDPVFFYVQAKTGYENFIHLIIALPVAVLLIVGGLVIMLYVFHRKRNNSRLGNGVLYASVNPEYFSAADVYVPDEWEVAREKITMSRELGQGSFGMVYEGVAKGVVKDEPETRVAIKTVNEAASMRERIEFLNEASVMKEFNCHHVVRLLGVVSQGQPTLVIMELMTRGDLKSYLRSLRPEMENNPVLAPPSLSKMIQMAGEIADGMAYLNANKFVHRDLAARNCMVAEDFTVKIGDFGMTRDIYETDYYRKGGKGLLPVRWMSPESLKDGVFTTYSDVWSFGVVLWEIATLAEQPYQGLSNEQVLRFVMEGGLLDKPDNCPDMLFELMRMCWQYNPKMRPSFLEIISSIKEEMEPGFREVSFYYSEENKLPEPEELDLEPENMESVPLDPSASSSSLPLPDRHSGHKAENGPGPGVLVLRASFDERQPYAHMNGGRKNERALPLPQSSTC
Method: as §1

[2] = target: Fibroblast growth factor receptor 1 (Homo sapiens, UniProt P11362)
Method: as §1

[3] = target: Vascular endothelial growth factor receptor 3 (Homo sapiens, UniProt P35916)
Vascular endothelial growth factor receptor 3, sequence (P35916 whole entry): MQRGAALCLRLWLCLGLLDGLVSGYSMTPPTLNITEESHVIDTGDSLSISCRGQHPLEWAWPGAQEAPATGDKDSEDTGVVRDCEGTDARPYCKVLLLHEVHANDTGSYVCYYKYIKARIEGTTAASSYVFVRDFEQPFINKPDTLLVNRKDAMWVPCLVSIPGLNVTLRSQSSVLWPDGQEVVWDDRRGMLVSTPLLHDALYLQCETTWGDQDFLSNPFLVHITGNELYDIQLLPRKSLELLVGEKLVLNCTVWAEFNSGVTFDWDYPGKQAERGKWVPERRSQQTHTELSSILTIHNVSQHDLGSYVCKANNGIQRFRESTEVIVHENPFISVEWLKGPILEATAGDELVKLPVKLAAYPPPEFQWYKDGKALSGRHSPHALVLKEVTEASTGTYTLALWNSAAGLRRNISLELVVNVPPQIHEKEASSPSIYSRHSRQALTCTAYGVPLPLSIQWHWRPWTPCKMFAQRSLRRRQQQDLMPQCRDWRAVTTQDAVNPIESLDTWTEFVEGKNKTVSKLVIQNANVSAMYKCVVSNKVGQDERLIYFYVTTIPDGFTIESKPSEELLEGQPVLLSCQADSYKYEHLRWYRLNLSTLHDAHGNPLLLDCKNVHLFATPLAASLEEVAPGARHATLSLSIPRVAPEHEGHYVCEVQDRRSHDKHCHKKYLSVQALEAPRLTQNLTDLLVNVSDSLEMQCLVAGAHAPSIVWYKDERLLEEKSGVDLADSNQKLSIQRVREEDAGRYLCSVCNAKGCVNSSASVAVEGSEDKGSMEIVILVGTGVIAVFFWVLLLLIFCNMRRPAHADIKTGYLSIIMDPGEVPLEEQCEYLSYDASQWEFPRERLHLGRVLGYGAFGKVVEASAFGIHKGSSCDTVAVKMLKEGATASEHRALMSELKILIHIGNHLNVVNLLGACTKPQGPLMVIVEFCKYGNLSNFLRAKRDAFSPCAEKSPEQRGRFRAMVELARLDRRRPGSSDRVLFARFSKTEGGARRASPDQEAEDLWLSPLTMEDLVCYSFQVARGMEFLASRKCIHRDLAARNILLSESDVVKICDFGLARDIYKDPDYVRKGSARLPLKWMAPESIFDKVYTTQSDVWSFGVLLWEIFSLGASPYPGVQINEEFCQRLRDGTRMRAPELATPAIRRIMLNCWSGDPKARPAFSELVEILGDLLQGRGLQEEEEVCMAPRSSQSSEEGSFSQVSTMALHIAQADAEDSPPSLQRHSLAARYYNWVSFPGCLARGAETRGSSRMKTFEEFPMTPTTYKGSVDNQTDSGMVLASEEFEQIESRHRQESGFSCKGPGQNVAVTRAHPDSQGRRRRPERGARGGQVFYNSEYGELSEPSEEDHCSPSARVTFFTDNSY
Method: as §1

[4] = target: Vascular endothelial growth factor receptor 2 (Homo sapiens, UniProt P35968)
Method: as §1

[5] = target: Epidermal growth factor receptor (Homo sapiens, UniProt P00533)
Epidermal growth factor receptor, sequence (P00533 whole entry): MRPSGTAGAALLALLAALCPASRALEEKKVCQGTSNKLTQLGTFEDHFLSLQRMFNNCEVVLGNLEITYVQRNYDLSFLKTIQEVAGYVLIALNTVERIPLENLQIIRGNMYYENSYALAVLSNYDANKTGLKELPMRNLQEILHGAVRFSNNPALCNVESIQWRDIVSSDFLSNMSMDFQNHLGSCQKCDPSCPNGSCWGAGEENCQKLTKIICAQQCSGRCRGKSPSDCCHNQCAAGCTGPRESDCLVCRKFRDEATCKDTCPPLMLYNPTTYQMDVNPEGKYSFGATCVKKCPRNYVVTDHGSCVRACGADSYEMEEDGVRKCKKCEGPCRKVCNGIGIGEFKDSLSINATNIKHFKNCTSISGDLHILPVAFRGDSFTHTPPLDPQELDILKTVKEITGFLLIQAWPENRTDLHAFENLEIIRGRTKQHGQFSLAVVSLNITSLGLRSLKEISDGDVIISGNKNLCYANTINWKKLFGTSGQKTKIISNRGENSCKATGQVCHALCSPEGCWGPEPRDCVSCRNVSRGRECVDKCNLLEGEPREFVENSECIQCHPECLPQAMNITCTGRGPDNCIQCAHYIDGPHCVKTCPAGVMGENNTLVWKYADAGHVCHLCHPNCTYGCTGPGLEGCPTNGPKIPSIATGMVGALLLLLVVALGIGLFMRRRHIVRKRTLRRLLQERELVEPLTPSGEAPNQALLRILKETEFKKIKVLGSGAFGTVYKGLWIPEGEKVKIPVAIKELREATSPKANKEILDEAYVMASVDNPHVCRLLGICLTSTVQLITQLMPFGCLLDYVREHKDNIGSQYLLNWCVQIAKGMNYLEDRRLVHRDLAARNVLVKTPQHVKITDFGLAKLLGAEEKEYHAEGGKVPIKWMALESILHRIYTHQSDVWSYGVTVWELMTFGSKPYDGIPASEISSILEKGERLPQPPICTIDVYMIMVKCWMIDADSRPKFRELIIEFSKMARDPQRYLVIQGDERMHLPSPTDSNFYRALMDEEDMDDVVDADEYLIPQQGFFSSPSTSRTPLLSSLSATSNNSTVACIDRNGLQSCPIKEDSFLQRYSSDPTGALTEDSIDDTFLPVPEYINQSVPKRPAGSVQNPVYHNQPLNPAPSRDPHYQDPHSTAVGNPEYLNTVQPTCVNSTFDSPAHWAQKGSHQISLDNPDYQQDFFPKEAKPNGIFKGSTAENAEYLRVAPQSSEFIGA
Method: as §1

Angiopoietin-1 receptor, sequence (Q02763 whole entry, the tested form may be a part): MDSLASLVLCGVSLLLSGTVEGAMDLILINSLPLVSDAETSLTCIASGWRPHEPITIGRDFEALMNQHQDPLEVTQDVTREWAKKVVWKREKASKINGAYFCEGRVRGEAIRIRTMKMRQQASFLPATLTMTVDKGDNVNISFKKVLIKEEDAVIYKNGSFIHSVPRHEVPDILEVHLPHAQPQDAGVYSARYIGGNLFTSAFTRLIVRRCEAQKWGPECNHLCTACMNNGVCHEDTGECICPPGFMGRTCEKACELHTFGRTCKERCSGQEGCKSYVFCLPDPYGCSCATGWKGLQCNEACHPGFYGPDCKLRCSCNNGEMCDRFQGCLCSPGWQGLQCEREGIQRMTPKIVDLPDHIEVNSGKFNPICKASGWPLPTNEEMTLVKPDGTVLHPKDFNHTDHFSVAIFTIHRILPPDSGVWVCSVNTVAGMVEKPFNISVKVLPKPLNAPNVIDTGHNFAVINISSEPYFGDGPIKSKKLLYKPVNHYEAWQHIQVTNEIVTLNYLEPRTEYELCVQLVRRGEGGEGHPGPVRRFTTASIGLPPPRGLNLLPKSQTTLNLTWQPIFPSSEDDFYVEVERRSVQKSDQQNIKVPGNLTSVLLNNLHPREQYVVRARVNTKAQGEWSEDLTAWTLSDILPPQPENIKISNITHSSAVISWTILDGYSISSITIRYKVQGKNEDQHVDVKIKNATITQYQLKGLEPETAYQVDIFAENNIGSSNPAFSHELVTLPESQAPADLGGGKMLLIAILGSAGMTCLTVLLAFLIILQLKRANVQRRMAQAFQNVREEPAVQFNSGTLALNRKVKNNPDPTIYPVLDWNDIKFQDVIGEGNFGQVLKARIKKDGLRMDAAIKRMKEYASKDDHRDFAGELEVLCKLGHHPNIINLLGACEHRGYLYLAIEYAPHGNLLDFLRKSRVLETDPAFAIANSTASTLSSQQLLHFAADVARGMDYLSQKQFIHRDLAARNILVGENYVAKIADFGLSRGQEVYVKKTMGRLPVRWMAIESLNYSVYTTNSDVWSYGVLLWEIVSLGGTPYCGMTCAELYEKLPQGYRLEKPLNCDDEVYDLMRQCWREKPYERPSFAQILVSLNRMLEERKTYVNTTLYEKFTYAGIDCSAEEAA

SMILES | IC50 (Angiopoietin-1 receptor) [µM] | IC50 [1] [µM] | IC50 [2] [µM] | IC50 [3] [µM] | IC50 [4] [µM] | IC50 [5] [µM]
CC1=C(CC(=O)O)c2cc(F)ccc2/C1=C\c1cccc(OCc2ccccc2)c1 [Sulindac analogue, 11] | 11 |  |  |  |  | 
CC1=C(CC(=O)O)c2cc(I)ccc2/C1=C\c1cccc(OCc2ccccc2)c1 [Sulindac analogue, 22] | 7 |  |  |  |  | 
CCC1=C(CC(=O)O)c2cc(C#Cc3ccccc3)ccc2/C1=C\c1ccsc1 [Sulindac analogue, 24] | 5 |  |  |  |  | 
CC1=C(CC(=O)O)c2ccc(Br)cc2/C1=C/c1ccsc1 [Sulindac analogue, 20] | 11 | 71 |  |  |  | 
CC1=C(CC(=O)O)c2cc(F)ccc2/C1=C\c1cccs1 [Sulindac analogue, 12] | 5 |  |  |  |  | 
CC1=C(CC(=O)O)c2cc(F)ccc2/C1=C\c1ccoc1 [Sulindac analogue, 14] |  |  |  |  | 8 | 
CCC1=C(CC(=O)O)c2cc(/C=C/C(=O)OC(C)(C)C)ccc2/C1=C\c1ccsc1 [Sulindac analogue, 23] | 5 |  |  |  |  | 

Other lines, results leading:

IC50 (Angiopoietin-1 receptor) [µM] | IC50 [1] [µM] | IC50 [2] [µM] | IC50 [3] [µM] | IC50 [4] [µM] | IC50 [5] [µM] | SMILES
1 | 4 | 23 | 4 | 3 | 12 | CC1=C(CC(=O)O)c2ccc(Br)cc2/C1=C\c1ccsc1 [Sulindac analogue, 19]
5 | 7 |  | 14 |  | 8 | CC1=C(CC(=O)O)c2cc(Cl)ccc2/C1=C\c1ccoc1 [Sulindac analogue, 17]
5 |  |  |  |  |  | CC1=C(CC(=O)O)c2cc(F)ccc2/C1=C\c1ccc(F)c(F)c1 [Sulindac analogue, 10]
0.6 |  |  | 15 | 14 |  | CC1=C(CC(=O)O)c2cc(F)ccc2/C1=C\c1ccsc1 [Sulindac analogue, 13]
2 |  |  |  |  |  | CCC1=C(CC(=O)O)c2cc(F)ccc2/C1=C\c1ccc(OCc2ccccc2)cc1 [Sulindac analogue, 16]
1 |  | 3 |  | 5 | 0.9 | CCC1=C(CC(=O)O)c2cc(F)ccc2/C1=C\c1ccoc1 [Sulindac analogue, 15]
3 | 13 |  | 15 | 24 | 22 | CC1=C(CC(=O)O)c2ccc(Br)cc2/C1=C\c1ccoc1 [Sulindac analogue, 21]
1 |  |  |  |  |  | CC1=C(CC(=O)O)c2cc(Br)ccc2/C1=C\c1ccccc1 [Sulindac analogue, 18]
